Measured values published in patent publication US20260166045A1, “COMBINATION THERAPY COMPRISING GSPT1-DIRECTED MOLECULAR GLUE DEGRADERS AND PI3K/AKT/mTOR PATHWAY INHIBITORS” (Monte Rosa Therapeutics, Inc., priority 2022, published 2026).
Several values for one entry are separate records, joined by “and”; a condition that tells them apart may be missing. Identical values can stand only once.

Columns and labels:
Assay in all cases: CellTiter-Glo 2.0 cell viability, 7x7 combination dose response matrix, synergy scoring
Format in all cases: cell-based
CAL51 cell line = settings: CAL51
Source text: (§1) A study was undertaken to determine whether the combination of a GSPT1-directed MGD and an inhibitor of the PI3K/AKT/mTOR pathway could be effective in killing cancer cells and whether certain combination could elicit a greater than additive effect on cell killing.
(§2) FIG. 1 is a flow diagram of the method used to assess cancer cell killing by a combination of a GSPT1-directed MGD and an inhibitor of the PI3K/AKT/mTOR pathway. Certain of the materials and equipment used in the studies are presented in Table 3 and the cell lines used are presented in Table 4.
(§3) All assays were run in triplicate. Each 384-well plate accommodated six 7×7 dose response matrices (FIG. 2). All compound handling was performed using an Echo 650 Series Acoustic Liquid Handler, which enables fully automated, precise, contact-free acoustic transfer in volumes as low as 2.5 nL.
(§4) The following protocol was used for cell plating: • 1. Warm media to room temperature or 37° C. • 2. Prepare complete phenol-free media by adding 10% FBS+1% Pen-Strep to RPMI 1640 Medium or DMEM. • 3. Aspirate media from T175 tissue culture flask and rinse with 10 ml PBS. • 4. Aspirate PBS and add 2 mL 0.25% trypsin. Incubate the flask at 37° C. for 5 min or until cells are detached. • 5. Add 10 mL complete media to the flask to neutralize the trypsin, then collect cells in a 50 mL conical tube. • 6. Centrifuge cells at 300 g for 5 min. Aspirate media and suspend cell pellet in fresh media. Use cell strainer to strain cells into a new 50 mL conical tube. • 7. […] Mix 100 uL cell suspension with 100 uL trypan blue (1:1) and pipette 20 μL of the mixture into each of 2 counting chambers on a slide. Insert slide. • b. Adjust focus and record the live cell count. At least 2 independent measurements should be taken. […] Cell viability should be greater than 90%. […] Dilute cell suspension to the desired concentration (20000 cells/mL) using complete phenol-free media. Prepare 10 mL cell suspension per plate+an extra 10 mL for priming the liquid handler. • 9. Dispense cells into 384-well plates using the liquid handler at 25 uL/well (500 cells/well). 3 plates should be prepared per compound plate to be treated. • 10. Cells should be dispensed into columns 1-23 only. Media only (no cells) should be dispensed into column 24. • 11. Allow plates to rest at RT for 30 minutes before transferring to the incubator. Incubate cells overnight at 37° C., 95% humidity, and 5% CO2.
(§5) Compound plates were prepared as follows using an Echo 650 Series Acoustic Liquid Handler. • 1. A compound plate containing 7-point dose responses of each compound to be treated is first prepared from stock compounds. • 2. The cell plates are treated with compounds according to the following maps, where the first compound is added across all six 7 by 7 dose response matrices, and its concentration varies by row (FIG. 2; top matrix), whereas the second compound varies for each dose response matrix, and its concentration varies by column (FIG. 2; bottom matrix). Each cell plate receives one Compound A and six different Compound Bs. • 3. To prepare a compound plate, 384-well PP plate with stock compounds (highest concentration) is prepared. Compounds are diluted 1:1000 in the cell plates, e.g. 10 mM on compound plate will be 10 uM on cell plate. A 384-well LDV plate with pre-determined volumes of DMSO is prepared. Echo is used to dilute stock compounds from PP plate into LDV plate to prepare 7-point dose responses.
(§6) Compounds were added to the cells and cell viability was measured after 72 hour incubation using CellTiter-Glo 2.0 Cell Viability Assay (Promega): • 1. For a compound addition, Echo is used to transfer 25 nL from the compound plate wells to the cell plates according to the plate maps shown in FIG. 2. Cell plates are treated in triplicate. Each well of the cell plate has 25 uL media (1:1000 dilution). Incubate cells post-treatment at 37° C., 95% humidity, and 5% CO2 for 72 hrs (step 106). • 2. […]

NCI-H1155 cell line = settings: first compound 0.21-100 nM
Source text: as §1, §2, §3, §4, §5, §6

MDA-MB-231 cell line = system: MDA-MB-231 cell line
Source text: as §1, §2, §3, §4, §5, §6

CAL51 mutant cell line = settings: first compound 0.41-100 nM
Source text: as §1, §2, §3, §4, §5, §6

NCI-H2023 cell line = system: NCI-H2023 cell line
Source text: as §1, §2, §3, §4, §5, §6

[1] = combined with Alpelisib 41-10000 nM, first compound 0.41-33.33 nM
[2] = combined with Alpelisib 41-10000 nM, first compound 0.41-100 nM
[3] = combined with Everolimus 41-10000 nM, first compound 0.41-100 nM
[4] = combined with GNE-477 41-10000 nM, first compound 0.41-100 nM
[5] = combined with HS173 41-10000 nM, first compound 0.41-100 nM
[6] = combined with KU-0063794 41-10000 nM, first compound 0.41-100 nM
[7] = combined with M2698 41-10000 nM, first compound 0.41-100 nM
[8] = combined with Serabelisib 41-10000 nM, first compound 0.41-100 nM
[9] = combined with Alpelisib 21-10000 nM
[10] = combined with Capivasertib 21-10000 nM
[11] = combined with Everolimus 2.1-1000 nM
[12] = combined with GNE-477 21-10000 nM
[13] = combined with KU-0063794 21-10000 nM
[14] = combined with M2698 21-10000 nM
[15] = MDA-MB-231, combined with Alpelisib 41-10000 nM, first compound 0.41-100 nM
[16] = MDA-MB-231, combined with Capivasertib 41-10000 nM, first compound 0.41-100 nM
[17] = MDA-MB-231, combined with Everolimus 41-10000 nM, first compound 0.41-100 nM
[18] = MDA-MB-231, combined with GNE-477 41-10000 nM, first compound 0.41-100 nM
[19] = MDA-MB-231, combined with KU-0063794 41-10000 nM, first compound 0.41-100 nM
[20] = combined with Alpelisib 41-10000 nM
[21] = combined with Capivasertib 41-10000 nM
[22] = combined with Everolimus 4.1-1000 nM
[23] = combined with GNE-477 41-10000 nM
[24] = combined with KU-0063794 41-10000 nM
[25] = combined with M2698 41-10000 nM
[26] = NCI-H2023, combined with Alpelisib 21-10000 nM, first compound 0.21-100 nM
[27] = NCI-H2023, combined with Capivasertib 21-10000 nM, first compound 0.21-100 nM
[28] = NCI-H2023, combined with Everolimus 2.1-1000 nM, first compound 0.21-100 nM
[29] = NCI-H2023, combined with GNE-477 21-10000 nM, first compound 0.21-100 nM
[30] = NCI-H2023, combined with KU-0063794 21-10000 nM, first compound 0.21-100 nM
[31] = NCI-H2023, combined with M2698 21-10000 nM, first compound 0.21-100 nM

Cc1ccc(NC(=O)OCc2ccc3c(c2)C(=O)N(C2CCC(=O)NC2=O)C3)cc1Cl (stereo not shown) [Compound 1-6, [2-(2,6-dioxopiperidin-3-yl)-3-oxo-2,3-dihydro-1H-isoindol-5-yl]methyl N-(3-chloro-4-methylphenyl)carbamate]
Mean Bliss synergy score (CAL51 cell line; [1]): 4.15 | Mean Loewe synergy score (CAL51 cell line; [1]): 7.89 | Mean Bliss synergy score (CAL51 cell line; [2]): 13.06 and 19.57 | Mean Loewe synergy score (CAL51 cell line; [2]): 11.36 and 7.04 | Mean Bliss synergy score (CAL51 cell line; combined with Capivasertib 41-10000 nM, first compound 0.41-100 nM): 24.03 and 20.68 | Mean Bliss synergy score (CAL51 cell line; [3]): 20.31 | Mean Loewe synergy score (CAL51 cell line; [3]): 22.83 | Mean Bliss synergy score (CAL51 cell line; [4]): 5.80 | Mean Loewe synergy score (CAL51 cell line; [4]): 6.34 | Mean Bliss synergy score (CAL51 cell line; [5]): 4.98 | Mean Loewe synergy score (CAL51 cell line; [5]): 1.89 | Mean Bliss synergy score (CAL51 cell line; [6]): 12.93 | Mean Loewe synergy score (CAL51 cell line; [6]): 8.26 | Mean Bliss synergy score (CAL51 cell line; [7]): 11.87 and 11.78 | Mean Loewe synergy score (CAL51 cell line; [7]): 12.09 and 12.43 | Mean Bliss synergy score (CAL51 cell line; [8]): 4.74 | Mean Loewe synergy score (CAL51 cell line; [8]): 0.94 | Mean Bliss synergy score (NCI-H1155 cell line; [9]): 5.23 | Mean Loewe synergy score (NCI-H1155 cell line; [9]): 2.10 | Mean Bliss synergy score (NCI-H1155 cell line; [10]): 5.58 | Mean Loewe synergy score (NCI-H1155 cell line; [10]): 4.36 | Mean Bliss synergy score (NCI-H1155 cell line; [11]): −1.66 | Mean Loewe synergy score (NCI-H1155 cell line; [11]): 6.77 | Mean Bliss synergy score (NCI-H1155 cell line; [12]): 3.25 | Mean Loewe synergy score (NCI-H1155 cell line; [12]): 3.14 | Mean Bliss synergy score (NCI-H1155 cell line; [13]): 3.66 | Mean Loewe synergy score (NCI-H1155 cell line; [13]): 2.43 | Mean Bliss synergy score (NCI-H1155 cell line; [14]): 2.04 | Mean Loewe synergy score (NCI-H1155 cell line; [14]): 4.27 | Mean Bliss synergy score (MDA-MB-231 cell line; [15]): 1.80 | Mean Loewe synergy score (MDA-MB-231 cell line; [15]): 5.93 | Mean Bliss synergy score (MDA-MB-231 cell line; [16]): 5.75 | Mean Loewe synergy score (MDA-MB-231 cell line; [16]): 7.02 | Mean Bliss synergy score (MDA-MB-231 cell line; [17]): 8.98 | Mean Loewe synergy score (MDA-MB-231 cell line; [17]): 11.33 | Mean Bliss synergy score (MDA-MB-231 cell line; [18]): 2.23 | Mean Loewe synergy score (MDA-MB-231 cell line; [18]): 5.29 | Mean Bliss synergy score (MDA-MB-231 cell line; [19]): 3.19 | Mean Loewe synergy score (MDA-MB-231 cell line; [19]): 6.78 | Mean Loewe synergy score (MDA-MB-231 cell line; MDA-MB-231, combined with M2698 41-10000 nM, first compound 0.41-100 nM): 4.77 and 5.02 | Mean Bliss synergy score (MDA-MB-231 cell line; combined with Everolimus (41 nM to 10 uM), MDA-MB-231 cell line, mean across dose response matrix, 72 hrs): 8.98 | Mean Bliss synergy score (CAL51 mutant cell line; [20]): −0.63 | Mean Loewe synergy score (CAL51 mutant cell line; [20]): −1.04 | Mean Bliss synergy score (CAL51 mutant cell line; [21]): 0.95 | Mean Loewe synergy score (CAL51 mutant cell line; [21]): −0.06 | Mean Bliss synergy score (CAL51 mutant cell line; [22]): −1.53 | Mean Loewe synergy score (CAL51 mutant cell line; [22]): −0.66 | Mean Bliss synergy score (CAL51 mutant cell line; [23]): −1.35 | Mean Loewe synergy score (CAL51 mutant cell line; [23]): −2.34 | Mean Bliss synergy score (CAL51 mutant cell line; [24]): −1.01 | Mean Loewe synergy score (CAL51 mutant cell line; [24]): −0.85 | Mean Bliss synergy score (CAL51 mutant cell line; [25]): 0.82 | Mean Loewe synergy score (CAL51 mutant cell line; [25]): −0.62 | Mean Bliss synergy score (NCI-H2023 cell line; [26]): 19.68 | Mean Loewe synergy score (NCI-H2023 cell line; [26]): 8.92 | Mean Bliss synergy score (NCI-H2023 cell line; [27]): 22.78 | Mean Loewe synergy score (NCI-H2023 cell line; [27]): 11.70 | Mean Bliss synergy score (NCI-H2023 cell line; [28]): 13.21 | Mean Loewe synergy score (NCI-H2023 cell line; [28]): 17.02 | Mean Bliss synergy score (NCI-H2023 cell line; [29]): 14.13 | Mean Loewe synergy score (NCI-H2023 cell line; [29]): 5.10 | Mean Bliss synergy score (NCI-H2023 cell line; [30]): 18.40 | Mean Loewe synergy score (NCI-H2023 cell line; [30]): 11.37 | Mean Bliss synergy score (NCI-H2023 cell line; [31]): 12.91 | Mean Loewe synergy score (NCI-H2023 cell line; [31]): 11.66 | Mean Bliss synergy score (NCI-H2023 cell line; combined with KU-0063794 (21 nM to 10 uM), NCI-H2023 cell line, mean across dose response matrix, 72 hrs): 18.40 | Mean Loewe synergy score (NCI-H2023 cell line; combined with M2698 (21 nM to 10 uM), NCI-H2023 cell line, mean across dose response matrix, 72 hrs): 11.66
